What is called IC50 is the point on the concentration scale where inhibition reaches its midpoint. Low readings indicate greater potency, high ones weaker potency.

Consider two compounds from PMC4598770, “Galectin Binding to Neo-Glycoproteins: LacDiNAc Conjugated BSA as Ligand for Human Galectin-3” (Biomolecules, 2015).

In this assay the target is T1, human Gal-3 (Homo sapiens, UniProt P17931).
T1 construct: made in house; host or cells: E. coli Rosetta (DE3) pLysS
In words: Competitive inhibition of Gal-3 binding to immobilized ASF. Particulars: for IC50: 5 µM galectin-3 binding to immobilized ASF; for Relative potency: related to the corresponding tetrasaccharide (4 or 5); for Relative potency per glycan: related to the corresponding tetrasaccharide and to one binding site. Here is the method:
Neo-glycoproteins were used as inhibitors of Gal-3 to ASF binding in competitive inhibition assays performed as described. The standard glycoprotein ASF (Sigma-Aldrich) was immobilized in microtiter plates as described above for neo-glycoproteins. After blocking, 5 µM Gal-3 and varying concentration of 11j, 11k, 11g and 12j, 12k, 12g were simultaneously incubated for 1 h followed by detection of bound Gal-3 as described above. Measured data were fitted and IC50 values calculated using Sigma Plot software (Systat software GmbH).

T1 sequence (P17931 whole entry): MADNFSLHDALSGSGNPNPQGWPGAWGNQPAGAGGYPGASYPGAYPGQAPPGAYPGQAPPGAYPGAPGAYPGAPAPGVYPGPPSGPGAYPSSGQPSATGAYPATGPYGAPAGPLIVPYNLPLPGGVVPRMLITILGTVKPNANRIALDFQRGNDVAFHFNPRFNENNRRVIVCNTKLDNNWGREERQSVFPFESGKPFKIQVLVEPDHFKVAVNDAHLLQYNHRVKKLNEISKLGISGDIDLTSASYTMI

Consider `CC(=O)N[C@@H]1[C@@H](O)[C@H](O[C@@H]2O[C@H](CO)[C@H](O)[C@H](O[C@@H]3O[C@H](CO)[C@@H](O[C@@H]4O[C@H](CO)[C@H](O)[C@H](O)[C@H]4O)[C@H](O)[C@H]3NC(C)=O)[C@H]2O)[C@@H](CO)O[C@H]1NC(=S)NCCNC(=O)OC(C)(C)C` [Compound 4, Galβ1, 4GlcNAcβ1, 3Galβ1, 4GlcNAcβ1-linker-NH2-tBoc], for which the IC50 was determined as 13 ± 3.43 µM. Where the note is “5 µM galectin-3, ASF”, the Relative potency is 1.0 ± 0.26 and the “Relative potency per glycan” value is 1.0 ± 0.26.
The compound `CC(=O)N[C@@H]1[C@@H](O)[C@H](O[C@@H]2O[C@H](CO)[C@H](O)[C@H](O[C@@H]3O[C@H](CO)[C@@H](O[C@@H]4O[C@H](CO)[C@H](O)[C@H](O)[C@H]4NC(C)=O)[C@H](O)[C@H]3NC(C)=O)[C@H]2O)[C@@H](CO)O[C@H]1NC(=S)NCCNC(=O)OC(C)(C)C` [Compound 5, GalNAcβ1,4GlcNAcβ1,3Galβ1,4GlcNAcβ1-linker-NH2-tBoc] came in with an IC50 of 7.23 ± 0.87 µM. Also, the “Higher inhibition of Gal-3 binding compared to 4” value (5 µM galectin-3, ASF, compared with LacNAc-LacNAc (4)) was found to be 1.5 fold. In addition, for the setting “5 µM galectin-3, ASF”, the Relative potency is reported as 1.0 ± 0.12 and the “Relative potency per glycan” value is listed as 1.0 ± 0.12.
